Where two headings read alike, the source gives them in different places. Each block holds one compound with its values, some of them ahead of it.
Key:
[1] = Description: The estimation of parameters, including fixed and random effects, was conducted using first-order conditional estimation with the interaction method. This enables modelling of the interaction between the IIV in PK parameters and the residual variability (RV) in measured concentrations. […] Each model adhered to first-order kinetics, except the zero-order infusion processes. Each PK parameter in the model was described by the equation θi = θ × exp (ηi), where θ denotes the typical value of the PK parameter, θi is the individual PK parameter value for each participant, and ηi is a random variable encapsulating IIV. We hypothesised that IIV is normally distributed, with a mean of zero and variance ω^2. RV was modelled as normally distributed with a mean of zero and a variance σ^2. Additionally, we evaluated additive, proportional, and combined additive-proportional error models. The methods used to select and validate models encompassed several criteria: variations in NONMEM objective function values (OFVs), the accuracy of parameter estimates as reflected by relative standard errors, goodness-of-fit plots, VPC, and bootstrap evaluations. […] Model validation processes included the creation of conditional weighted residual plots versus time and against population predictions (PRED), in addition to comparisons between observed data and both PRED and individual predictions. […] The variability in the final model predictions was analysed using the median and 95% confidence intervals from 2000 bootstrap replicates. We identified significant covariates influencing pharmacokinetic (PK) parameters through a process of stepwise forward selection and backward elimination, with inclusion thresholds of p < 0.01 (ΔOFV < −6.635) and exclusion thresholds of p < 0.001 (ΔOFV > 10.83) for single degree-of-freedom tests. Covariates were assessed for both their statistical and clinical relevance, taking into account demographic factors (such as gender, age, weight, height, body mass index, and body surface area) and biochemical markers (including serum protein, albumin, creatinine, and cystatin C levels). […] We utilised Perl-speaks-NONMEM (PSN, version 5.3.1, [https://uupharmacometrics.github.io/PsN], accessed on 13 April 2023) for covariate identification, VPC execution, and nonparametric bootstrapping to evaluate model robustness. Data analysis and graphical outputs were conducted using the R programming environment (version 4.4.0, [www.rproject.org], Vienna, Austria, accessed on 6 June 2024).
[2] = cited from earlier work; for average AUC: critically ill patients, daily dose 30 mg/kg
Remark: listed apart in the source
[3] = final model, 2000 bootstrap replicates
[4] = final model, Q = θ5 × (WT/69.45)^θ6
[5] = final model, V2 = θ7 × (BSA/1.80)^θ8
[6] = healthy adults n = 12, 1 g i.v. over 2 h, plasma, NCA, mean (CV%)
[7] = healthy adults n = 12, 1 g i.v. over 2 h, plasma, NCA, median (IQR)

V1, Estimates ([1]; in vivo): 15.1 L | V2, Estimates ([1]; in vivo): 26.2 L
Compound: C[C@@H](O)[C@H]1C(=O)N2C(C(=O)O)=C(S[C@@H]3CN[C@H](C(=O)N(C)C)C3)[C@H](C)[C@H]12 [meropenem]

Compound: CN[C@H](CC(C)C)C(=O)N[C@H]1C(=O)N[C@@H](CC(N)=O)C(=O)N[C@H]2C(=O)N[C@H]3C(=O)N[C@H](C(=O)N[C@H](C(=O)O)c4cc(O)cc(O)c4-c4cc3ccc4O)[C@H](O)c3ccc(c(Cl)c3)Oc3cc2cc(c3O[C@@H]2O[C@H](CO)[C@@H](O)[C@H](O)[C@H]2O[C@H]2C[C@](C)(N)[C@H](O)[C@H](C)O2)Oc2ccc(cc2Cl)[C@H]1O [vancomycin]
clearance rate per kg ([1]; final model typical CL 8.83 L/h expressed per kg, healthy adults with normal renal function): 2.12 mL/min/kg | θ1, typical total clearance CL, Bootstrap Median (95% CI) [1, 3]: 8.78 (8.14–9.6) L/h | θ4, central volume of distribution V1, Bootstrap Median (95% CI) [1, 3]: 12.8 (3.94–19.6) L | θ5, intercompartmental clearance Q, Bootstrap Median (95% CI) [1, 3]: 20.4 (16.8–28.2) L/h | θ6, exponent of weight on Q, Bootstrap Median (95% CI) [1, 3]: 2.31 (1.36–3.35) | θ7, peripheral volume of distribution V2, Bootstrap Median (95% CI) [1, 3]: 27.8 (25.0–31.0) L | θ8, exponent of BSA on V2, Bootstrap Median (95% CI) [1, 3]: 3.13 (1.79–3.73) | θ1, typical total clearance CL, Estimates ([1]; final model, CL = θ1 × (WT/69.45)^θ2 × (AGE/38.5)^θ3, 12 healthy adults): 8.83 L/h | θ5, intercompartmental clearance Q, Estimates [1, 4]: 20.2 L/h | θ6, exponent of weight on Q, Estimates [1, 4]: 2.38 | θ4, central volume of distribution V1, Estimates ([1]; final model, V1 = θ4): 12.9 L | θ7, peripheral volume of distribution V2, Estimates [1, 5]: 27.4 L | θ8, exponent of BSA on V2, Estimates [1, 5]: 3.09 | VC, Mean (CV%) ([1]; individual parameters from population PK, central volume of distribution, n = 12, mean (CV%)): 0.211 (48.0) L/kg | VC, Median (IQR) ([1]; individual parameters from population PK, central volume of distribution, n = 12, median (IQR)): 0.163 (0.144–0.251) L/kg | t1/2α, Mean (CV%) ([1]; individual parameters from population PK, distribution phase half-life, n = 12, mean (CV%)): 0.270 (42.7) h | AUCtau, Mean (CV%) ([1]; individual parameters from population PK, dose/CL, 1 g, n = 12, mean (CV%)): 113 (28.9) mg·h/L | AUCtau, Median (IQR) ([1]; individual parameters from population PK, dose/CL, 1 g, n = 12, median (IQR)): 111 (81.9–137) mg·h/L | t1/2β, Mean (CV%) ([1]; individual parameters from population PK, elimination phase half-life, n = 12, mean (CV%)): 3.88 (12.5) h | Vss, Mean (CV%) ([1]; individual parameters from population PK, steady-state volume of distribution, n = 12, mean (CV%)): 0.611 (16.5) L/kg | Vss, Median (IQR) ([1]; individual parameters from population PK, steady-state volume of distribution, n = 12, median (IQR)): 0.593 (0.565–0.650) L/kg | CL, Mean (CV%) ([1]; individual parameters from population PK, total clearance, healthy adults n = 12, 1 g i.v. over 2 h, mean (CV%)): 0.135 (17.0) L/h/kg | CL, Median (IQR) ([1]; individual parameters from population PK, total clearance, healthy adults n = 12, median (IQR)): 0.131 (0.117–0.144) L/h/kg | Q, Estimates ([1]; two-compartment base model): 17.8 L/h | vancomycin clearance ([2]; ICU patients, CLCR 130 mL/min): 6.20 L/h | vancomycin clearance ([2]; ICU patients, CLCR 180 mL/min): 8.61 L/h | vancomycin clearance ([2]; critically ill ARC patients, average CLCR 180.8 mL/min): 9.7 L/h | vancomycin clearance ([2]; critically ill non-ARC patients, average CLCR 103.4 mL/min): 6.5 L/h | average AUC ([2]; 139 patients with augmented renal clearance (ARC)): 232.9 µg·h/mL | average AUC ([2]; 141 patients without ARC): 316.2 µg·h/mL | vancomycin clearance ([2]; patients with ARC): 5.55 L/h | vancomycin clearance ([2]; patients with non-ARC): 4.04 L/h | vancomycin clearance ([2]; patients with thermal or inhalation injuries, TBSA burns 10–19%): 8.2 L/h | vancomycin clearance ([2]; patients with thermal or inhalation injuries, TBSA burns 20–29%): 8.9 L/h | vancomycin clearance ([2]; patients with thermal or inhalation injuries, TBSA burns < 10%): 6.9 L/h | Cmax, Mean (CV%) (healthy Korean adults n = 12, single 1 g i.v. infusion over 2 h, plasma, LC-MS/MS, NCA, mean (CV%)): 23.4 (34.4) mg/L | Cmax, Median (IQR) (healthy Korean adults n = 12, single 1 g i.v. infusion over 2 h, plasma, LC-MS/MS, NCA, median (IQR)): 20.8 (17.0–27.1) mg/L | AUCinf, Mean (CV%) [6]: 106 (30.5) mg·h/L | AUClast, Mean (CV%) [6]: 78.7 (28.2) mg·h/L | AUMCinf, Mean (CV%) [6]: 667 (40.0) mg·h^2/L | AUMClast, Mean (CV%) [6]: 289 (26.7) mg·h^2/L | MRTinf, Mean (CV%) [6]: 5.12 (18.9) h | AUCinf, Median (IQR) [7]: 97.1 (76.1–140) mg·h/L | AUClast, Median (IQR) [7]: 73.6 (58.5–90.4) mg·h/L | AUMCinf, Median (IQR) [7]: 587 (464–807) mg·h^2/L | AUMClast, Median (IQR) [7]: 279 (217–341) mg·h^2/L | MRTinf, Median (IQR) [7]: 4.98 (4.46–5.60) h | VssNCA, Mean (CV%) (steady-state Vd by NCA, healthy adults n = 12, 1 g i.v. over 2 h, mean (CV%)): 0.730 (15.7) L/kg | VssNCA, Median (IQR) (steady-state Vd by NCA, healthy adults n = 12, 1 g i.v. over 2 h, median (IQR)): 0.714 (0.650–0.802) L/kg | t1/2λz, Mean (CV%) (terminal elimination half-life, NCA, healthy adults n = 12, 1 g i.v. over 2 h, mean (CV%)): 3.87 (21.3) h | t1/2λz, Median (IQR) (terminal elimination half-life, NCA, healthy adults n = 12, 1 g i.v. over 2 h, median (IQR)): 3.58 (3.34–4.25) h | CLNCA, Mean (CV%) (total body clearance by NCA, healthy adults n = 12, 1 g i.v. over 2 h, mean (CV%)): 0.146 (19.8) L/h/kg | CLNCA, Median (IQR) (total body clearance by NCA, healthy adults n = 12, 1 g i.v. over 2 h, median (IQR)): 0.135 (0.128–0.160) L/h/kg | VzZNCA, Mean (CV%) (volume of distribution by NCA, healthy adults n = 12, 1 g i.v. over 2 h, mean (CV%)): 0.793 (15.4) L/kg | VzZNCA, Median (IQR) (volume of distribution by NCA, healthy adults n = 12, 1 g i.v. over 2 h, median (IQR)): 0.806 (0.701–0.873) L/kg
